According to patent US20090130229A1, “Antitumor uses of compound” (Cell Therapeutics, Inc., priority 2002, published 2009):

What was measured:
Type in all cases: cell-based
Ret/MEN2A(C634R) = target: T1, Ret/MEN2A(C634R) (Homo sapiens, UniProt P07949, C634R); assay: Ret/MEN2A(C634R) autophosphorylation and expression in NIH3T3 transfectants (Western blotting); conditions: 10 μM
T1 construct: expressed in transfected cells; host or cells: NIH3T3 (mouse fibroblasts)
Procedure: FIG. 1. Effects of Cpd 1 on NIH3T3^MEN2A(C634R) transfectants expressing exogenous RET/MEN2A(C634R). […] Cells were exposed to 6 μM Cpd1 for 24 h and then photographed under a phase-contrast microscope (original magnification ×100). B) Antiproliferative effect. NIH3T3^MEN2A(C634R) cells and the parental NIH3T3 cells were treated with increasing concentrations of the drug for 72 h and then counted with a Coulter Counter. […] C) Inhibition of Ret/MEN2A(C634R) autophosphorylation and expression. Cells were treated with solvent (−) or 10 μM Cpd1 (+), for the indicated times. Whole cell-lysates were prepared and subjected to SDS-PAGE and Western blotting with anti-pTyr antibody. After stripping, the filter was reblotted with anti-Ret antibody. Arrows indicate the partial and fully glycosilated forms of the Ret/MEN2A receptor.
The following human medullary thyroid carcinoma (MTC) cell lines were used in this study. The TT cell line derived from a MEN2A-associated MTC characterized by expression of the RET oncogene carrying the mutation C634W. The MZ-CRC-1 cell line derived from MEN2B-associated MTC characterized by expression of the RET oncogene carrying the mutation M918T. TT cells were cultivated in Ham's F12 medium (BioWhittaker, Verviers, Belgium) supplemented with 15% fetal calf serum (FCS) (Life Technologies, Inc., Gaithersburg, Md.) whereas MZ-CRC-1 cells were grown in Dulbecco's modified Eagle's medium (DMEM) (BioWhittaker) supplemented with 10% FCS. […]
(§1) For whole-cell extract preparation, cells were lysed in sodium dodecyl sulfate (SDS) sample buffer (62.5 mM Tris-HCl (pH 6.8), 2% SDS) with 1 mM PMSF, 10 μg/ml pepstatin, 12.5 μg/ml leupeptin, 100 KIU aprotinin, 1 mM sodium orthovanadate, 1 mM sodium molybdate. Protein concentration was determined in appropriately diluted aliquots by the bicinchionic acid (BCA) method (Pierce, Rockford, Ill.), then samples were adjusted to a final concentration of 10% glycerol, 5% β-mercaptoethanol, 0.001% bromophenol blue. […]

Ret/MEN2A(C634W) = target: T2, Ret/MEN2A(C634W) (Homo sapiens, UniProt P07949, C634W); assay: Ret autophosphorylation and expression in TT cells (Western blotting); conditions: 24 h
T2 construct: endogenous in cells; host or cells: TT (human medullary thyroid carcinoma)
T2 sequence (P07949 29-1114 C634W): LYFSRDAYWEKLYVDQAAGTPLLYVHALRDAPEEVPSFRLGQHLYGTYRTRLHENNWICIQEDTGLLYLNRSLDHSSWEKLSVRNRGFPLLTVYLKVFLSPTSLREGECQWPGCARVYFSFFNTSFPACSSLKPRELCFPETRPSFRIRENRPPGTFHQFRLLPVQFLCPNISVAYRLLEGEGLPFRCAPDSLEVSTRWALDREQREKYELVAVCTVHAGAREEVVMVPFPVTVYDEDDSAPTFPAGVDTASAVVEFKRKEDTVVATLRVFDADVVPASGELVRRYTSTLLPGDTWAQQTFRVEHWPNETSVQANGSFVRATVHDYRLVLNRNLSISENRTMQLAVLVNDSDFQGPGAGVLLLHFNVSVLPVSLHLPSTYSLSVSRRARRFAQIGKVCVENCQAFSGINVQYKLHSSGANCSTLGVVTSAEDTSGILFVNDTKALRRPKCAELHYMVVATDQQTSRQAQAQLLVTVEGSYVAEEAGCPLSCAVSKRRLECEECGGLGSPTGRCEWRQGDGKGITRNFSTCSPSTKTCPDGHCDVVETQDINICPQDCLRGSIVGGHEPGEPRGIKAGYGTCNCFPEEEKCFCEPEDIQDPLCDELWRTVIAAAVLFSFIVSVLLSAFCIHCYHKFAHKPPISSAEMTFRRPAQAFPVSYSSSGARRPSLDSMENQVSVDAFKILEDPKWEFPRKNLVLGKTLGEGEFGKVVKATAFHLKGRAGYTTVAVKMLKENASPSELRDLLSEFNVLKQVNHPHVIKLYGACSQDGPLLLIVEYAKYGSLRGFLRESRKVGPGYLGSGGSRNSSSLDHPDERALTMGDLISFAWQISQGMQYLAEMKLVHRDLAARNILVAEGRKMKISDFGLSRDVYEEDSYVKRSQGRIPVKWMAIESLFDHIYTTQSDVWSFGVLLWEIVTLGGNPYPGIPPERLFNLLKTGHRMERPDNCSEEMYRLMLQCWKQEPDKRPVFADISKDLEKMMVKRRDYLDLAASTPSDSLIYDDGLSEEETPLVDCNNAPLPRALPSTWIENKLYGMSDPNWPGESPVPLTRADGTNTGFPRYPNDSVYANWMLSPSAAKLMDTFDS
Procedure: FIG. 2. Effects of Cpd1 on human MTC cell lines harboring MEN2-associated RET mutants. A) Inhibition of Ret autophosphorylation. TT and MZ-CRC-1 cells, expressing respectively RET/MEN2A(C634W) and RET/MEN2B(M918T), were treated with the indicated concentrations of Cpd1, for 24 h. Control cells (C) received the solvent. Whole cell extracts were processed for Western blotting and probed with anti-pTyr and anti-Ret antibodies. […] B) Antiproliferative effect. TT and MZ-CRC-1 cells were treated with increasing concentrations of Cpd 1 for 7 days and then counted with a Coulter Counter.
The following human medullary thyroid carcinoma (MTC) cell lines were used in this study. The TT cell line derived from a MEN2A-associated MTC characterized by expression of the RET oncogene carrying the mutation C634W. […]
as §1

c-Kit = target: T3, c-Kit (Homo sapiens, UniProt P10721); assay: c-Kit autophosphorylation and expression in SCLC cell line N592; conditions: N592 cells, 24 h
T3 construct: endogenous in cells; host or cells: N592 (human small cell lung carcinoma)
T3 sequence (P10721 26-976): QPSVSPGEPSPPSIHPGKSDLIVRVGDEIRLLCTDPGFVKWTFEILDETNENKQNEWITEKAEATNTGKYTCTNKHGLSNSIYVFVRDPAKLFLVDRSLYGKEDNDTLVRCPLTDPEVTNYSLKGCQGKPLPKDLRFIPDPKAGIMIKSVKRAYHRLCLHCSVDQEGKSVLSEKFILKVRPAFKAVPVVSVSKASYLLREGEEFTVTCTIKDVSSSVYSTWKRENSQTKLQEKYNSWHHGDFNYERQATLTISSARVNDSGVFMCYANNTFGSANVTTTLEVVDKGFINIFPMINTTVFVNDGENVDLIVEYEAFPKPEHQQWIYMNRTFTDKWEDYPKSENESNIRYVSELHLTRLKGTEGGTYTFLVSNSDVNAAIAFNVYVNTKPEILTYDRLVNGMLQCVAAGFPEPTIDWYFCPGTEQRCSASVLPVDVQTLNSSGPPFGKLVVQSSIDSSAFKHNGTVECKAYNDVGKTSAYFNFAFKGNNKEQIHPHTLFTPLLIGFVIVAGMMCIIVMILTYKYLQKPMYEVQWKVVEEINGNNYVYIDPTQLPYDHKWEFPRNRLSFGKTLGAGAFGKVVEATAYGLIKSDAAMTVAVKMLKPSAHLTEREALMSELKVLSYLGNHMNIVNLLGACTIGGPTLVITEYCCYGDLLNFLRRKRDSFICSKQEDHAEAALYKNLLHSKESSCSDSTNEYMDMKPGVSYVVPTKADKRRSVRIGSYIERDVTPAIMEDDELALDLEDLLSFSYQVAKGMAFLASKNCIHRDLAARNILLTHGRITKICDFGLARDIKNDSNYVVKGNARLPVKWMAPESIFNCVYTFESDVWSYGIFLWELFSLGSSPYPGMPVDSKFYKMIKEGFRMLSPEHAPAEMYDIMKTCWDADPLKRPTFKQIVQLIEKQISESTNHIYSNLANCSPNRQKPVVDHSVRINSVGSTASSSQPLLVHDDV
Procedure: FIG. 7. Effects of Cpd1 on cell lines expressing constitutively activated forms of Kit. […] Cells were treated with 20 μM Cpd1 and photographed 24 h later under a phase-contrast microscope (original magnification X 100). B): Inhibition of Kit (Δ559) autophosphorylation and expression in NIH3T3 transfectants. Cells were treated with Cpd 1 at the indicated concentrations, for 72 h. Cell lysates were immunoprecipitated with anti-Kit antibody and subjected to Western blotting with anti-p-Tyr or anti-Kit antibodies. C): Inhibition of expression and autocrine loop-activated autophosphorylation of c-Kit in the SCLC cell line N592. Cells were treated with Cpd 1 at the indicated concentrations, for 24 h. Whole cell lysates were subjected to Western blotting with anti-Kit antibody or with an antibody specifically recognizing the tyrosine phosphorylated/activated Kit (p-Kit). […]
as §1

T1 sequence (P07949 29-1072 isoform P07949-2 C634R limits assumed): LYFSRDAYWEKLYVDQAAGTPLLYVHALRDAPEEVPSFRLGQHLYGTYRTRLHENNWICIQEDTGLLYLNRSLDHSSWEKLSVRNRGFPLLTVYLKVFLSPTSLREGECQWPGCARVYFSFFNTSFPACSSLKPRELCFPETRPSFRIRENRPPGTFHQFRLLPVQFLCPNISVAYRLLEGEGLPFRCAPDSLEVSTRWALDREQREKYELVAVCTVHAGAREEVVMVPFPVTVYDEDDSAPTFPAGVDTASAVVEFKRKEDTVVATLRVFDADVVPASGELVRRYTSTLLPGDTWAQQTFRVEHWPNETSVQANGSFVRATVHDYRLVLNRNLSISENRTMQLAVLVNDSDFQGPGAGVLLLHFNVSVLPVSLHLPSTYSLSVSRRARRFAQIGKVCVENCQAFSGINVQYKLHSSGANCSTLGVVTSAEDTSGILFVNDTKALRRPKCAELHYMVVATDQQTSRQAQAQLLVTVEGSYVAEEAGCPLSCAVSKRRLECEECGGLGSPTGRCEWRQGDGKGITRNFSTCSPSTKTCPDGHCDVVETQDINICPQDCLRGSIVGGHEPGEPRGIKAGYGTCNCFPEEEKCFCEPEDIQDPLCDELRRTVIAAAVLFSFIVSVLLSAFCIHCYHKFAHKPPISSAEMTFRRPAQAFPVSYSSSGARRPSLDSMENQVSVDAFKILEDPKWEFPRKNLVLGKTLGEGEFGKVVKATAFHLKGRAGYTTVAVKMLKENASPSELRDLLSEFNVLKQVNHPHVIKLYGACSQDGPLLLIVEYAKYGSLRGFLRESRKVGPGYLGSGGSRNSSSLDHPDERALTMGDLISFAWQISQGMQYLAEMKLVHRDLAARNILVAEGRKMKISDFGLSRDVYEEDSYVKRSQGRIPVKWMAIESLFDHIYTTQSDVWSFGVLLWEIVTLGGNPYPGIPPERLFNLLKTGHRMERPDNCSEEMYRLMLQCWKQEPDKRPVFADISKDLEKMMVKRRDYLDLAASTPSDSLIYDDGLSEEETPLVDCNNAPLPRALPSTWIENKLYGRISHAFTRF

Question: Which “Ret/MEN2A(C634R) tyrosine phosphorylation” value (Ret/MEN2A(C634R); 2 h of exposure) does the source give for COc1cc2c(cc1OC)/C(=C\c1ccc(O)cc1)C(=O)N2 [Cpd 1, (E)-1,3-dihydro-5,6-dimethoxy-3-[(4-hydroxyphenyl)methylene]-2H-indol-2-one] here?
Answer: Its value is “partially dephosphorylated”.

Question: What about the “Ret/MEN2A(C634R) receptor expression” value (Ret/MEN2A(C634R); longer times than 2 h) of the same molecule?
Answer: The value was “reduced expression”.

Question: What about the “Ret/MEN2A(C634R) tyrosine phosphorylation” value (Ret/MEN2A(C634R); longer times than 2 h) of the same molecule?
Answer: The value was “complete tyrosine dephosphorylation”.

Question: And the “Tyrosine phosphorylation of Ret receptor” value (Ret/MEN2A(C634W))?
Answer: Its value is “dose-dependent inhibition”.

Question: And the Ret receptor expression (Ret/MEN2A(C634W); highest concentrations)?
Answer: The Ret receptor expression was “reduced expression”.

Question: And the “c-Kit autocrine loop-activated tyrosine phosphorylation (p-Kit)” value (c-Kit)?
Answer: The value was “dose-dependent drug-induced inhibition”.

Question: And the c-Kit expression (c-Kit)?
Answer: Its c-Kit expression is “dose-dependent drug-induced inhibition”.
